Test results published in ChEMBL document CHEMBL2177086, “Design and synthesis of a stable oxidized phospholipid mimic with specific binding recognition for macrophage scavenger receptors” (J Med Chem, 2012).
The source made the active and inactive calls. The calls are words filed in the database; no cut-off is given here.

Experiments:
[1] = test system: J774; test: Cytotoxicity against mouse J774 macrophages assessed as effect on cell number up to 72 hrs; assay type: cell-based; conditions: j774, 72 h
[2] = Binding affinity to monoclonal antibody E06 by solid phase chemiluminescent immunoassay
[3] = target: Platelet glycoprotein 4 (Mus musculus) (UniProt Q08857); test: Displacement of Bt-CuOxLDL from CD36 receptor in mouse J774 cells after 2 hrs by chemiluminescent assay; assay type: cell-based
[4] = target: Platelet glycoprotein 4 (Homo sapiens) (UniProt P16671); test: Displacement of CuOxLDL from CD36 receptor expressed in CHO cells; assay type: cell-based
[5] = test system: J774; test: Cytotoxicity against mouse J774 macrophages assessed as effect on protein content up to 72 hrs; assay type: cell-based; conditions: j774, 72 h

Sequence of Platelet glycoprotein 4 (Mus musculus) (Q08857 whole entry): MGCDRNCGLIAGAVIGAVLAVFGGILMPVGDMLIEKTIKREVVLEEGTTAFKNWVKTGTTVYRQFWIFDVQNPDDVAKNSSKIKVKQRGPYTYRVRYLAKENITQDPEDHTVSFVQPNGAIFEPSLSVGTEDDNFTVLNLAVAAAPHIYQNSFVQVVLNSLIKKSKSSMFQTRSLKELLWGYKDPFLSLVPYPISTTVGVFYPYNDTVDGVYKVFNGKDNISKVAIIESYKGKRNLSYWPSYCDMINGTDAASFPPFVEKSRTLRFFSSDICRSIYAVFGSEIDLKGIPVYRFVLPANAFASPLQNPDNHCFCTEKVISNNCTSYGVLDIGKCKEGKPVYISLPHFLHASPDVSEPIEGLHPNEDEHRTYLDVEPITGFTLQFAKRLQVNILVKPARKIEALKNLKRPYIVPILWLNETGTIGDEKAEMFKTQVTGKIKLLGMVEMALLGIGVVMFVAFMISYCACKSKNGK
Sequence of Platelet glycoprotein 4 (Homo sapiens) (P16671 whole entry): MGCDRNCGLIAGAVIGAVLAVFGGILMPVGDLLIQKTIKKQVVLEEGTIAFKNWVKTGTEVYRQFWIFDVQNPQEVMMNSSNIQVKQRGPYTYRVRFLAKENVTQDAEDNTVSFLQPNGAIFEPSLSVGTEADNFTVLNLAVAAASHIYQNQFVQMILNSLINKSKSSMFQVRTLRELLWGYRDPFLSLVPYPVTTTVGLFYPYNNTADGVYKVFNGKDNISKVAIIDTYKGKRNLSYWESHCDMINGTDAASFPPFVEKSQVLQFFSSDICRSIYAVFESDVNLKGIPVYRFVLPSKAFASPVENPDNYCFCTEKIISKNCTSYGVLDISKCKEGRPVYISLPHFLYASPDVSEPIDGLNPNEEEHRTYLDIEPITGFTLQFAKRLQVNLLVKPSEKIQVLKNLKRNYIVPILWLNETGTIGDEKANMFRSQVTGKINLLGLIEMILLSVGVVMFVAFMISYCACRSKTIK

Q: With `CCCCCCCCCCCCCCCC(=O)OC[C@H](COP(=O)([O-])OCC[N+](C)(C)C)OC(=O)CCCCN(C)CCCC[C@H](NC(=O)[C@@H](NC(=O)CNC(=O)[C@@H](NC(C)=O)[C@@H](C)O)[C@@H](C)O)C(=O)NCC(=O)NCC(=O)O` as the molecule, how does the Activity [1] read?
A: Non-toxic

Q: What about the Activity [2] of the same molecule?
A: Active

Q: And the Activity [3]?
A: > 99%

Q: What about the Activity [4] of the same molecule?
A: Active

Q: What about the Activity [5] of the same molecule?
A: Non-toxic

Q: With H-TGTKGG-OH as the molecule, how does the inhibition [3] read?
A: inactive
